Where two headings read alike, the source gives them in different places.
What was measured:
[1] = test system: TNF; assay: PBMC assay: TNF cytokine levels after LPS stimulation (MSD); format: cell-based; conditions: human PBMCs, 100 ng/ml LPS for 6 hrs
Experimental: (§1) Peripheral venous blood s collected from health individuals and human peripheral blood mononuclear cells (PBMCs) ere isolated from blood by Ficoll Histopaque (Sigma-Aldrich, A0561) density gradient centrifugation. After isolation, PBMCs were stored in liquid nitrogen for later use. Upon thawing, PBMC cell viability was determined in growth medium (RPMI media supplemented with 10% fetal bovine serum, 1% Pen-Strep and 1% L-glutamine). Compounds were spotted in a 1:3 serial dilution in DMSO and diluted to the final concentration in 30 μl medium in 96 well plates (Falcon, 353072). PBMCs were added at a density of 7.5×10^4 cells per well and incubated for 30 min in a 5% CO2 incubator at 37° C. LPS stimulation was performed by addition of 100 ng/ml LPS (final concentration, Invivogen, tlrl-smlps) for 6 hrs followed by collection of cellular supernatant and the analysis of IL-1β (μM) and TNF cytokines levels (μM) via MSD technology according to manufacturers' guidelines (MSD, K151A0H).
(§2) The IC50 values (for IL-1β) and EC50 values (TNF) were obtained on compounds of the invention/examples, and are depicted in the following table: […]

[2] = test system: IL-1β; assay: PBMC assay: inhibition of IL-1β release after LPS stimulation (MSD); format: cell-based; conditions: human PBMCs, 100 ng/ml LPS for 6 hrs, MSD, 96 well plates, read-out: IL1β IC50
Experimental: as §1, with “Compounds were spotted in a 1:3 serial dilution in DMSO and diluted to the final concentration in 30 μl medium in 96 well plates (Falcon, 353072).” left out
as §2

SMILES	EC50 ([1]; Homo sapiens, PBMC, 6 h)	IC50 ([2]; Homo sapiens, PBMC, 6 h)	EC50 [1]	IC50 [2]
CCc1nn(CC(=O)Nc2ccncn2)c(=O)c2ccc(C)cc12 [Final Cpd 4]	> 10 µM	2.91 µM	–	–
CC(O)c1nn(CC(=O)Nc2ccncn2)c(=O)c2ccc(Br)cc12 (stereo not drawn) [X-1081]	> 20 µM	0.894 µM	–	–
CC(C)c1nn(CC(=O)N[C@H]2C[C@@](C)(O)C2)c(=O)c2ccc(OC(F)(F)F)cc12 [X-1041]	> 20 µM	1.33 µM	–	–
CCN1CCCC(NC(=O)Cn2nc(C(C)C)c3cc(C(F)(F)F)ccc3c2=O)C1=O (stereo not drawn) [Final Cpd X152]	> 20 µM	7.5 µM	–	–
CC(C)c1nn(CC(=O)N[C@H]2C[C@H](C(C)(C)O)C2)c(=O)c2ccc(C(F)(F)F)cc12 [Final Cpd X99]	> 20 µM	1.16 µM	–	–
CC(C)c1nn(CC(=O)Nc2ccc3nncn3n2)c(=O)c2ccc(C3CC3)cc12 [X-1008]	2.61 µM	0.033 µM	–	–
CCN1CCC(NC(=O)Cn2nc(C(C)C)c3cc(C(F)(F)F)ccc3c2=O)CC1 [Final Cpd X143]	> 20 µM	4.93 µM	–	–
CC(C)c1ccc2c(=O)n(CC(=O)N[C@H]3C[C@@](C)(O)C3)nc(C(C)C)c2c1 [Final Cpd 34]	> 10 µM	< 0.12 µM	–	–
CC(C)(F)c1nn(CC(=O)Nc2ccncn2)c(=O)c2ccc(C(F)(F)F)cc12 [Final Cpd X180]	> 20 µM	> 20 µM	–	–
O=C(Cn1nc(C2CC2)c2cc(Br)ccc2c1=O)Nc1ccc2nncn2c1 [X-1023]	> 20 µM	0.101 µM	–	–
Cn1nc(NC(=O)Cn2nc(C(F)F)c3cc(Br)ccc3c2=O)ccc1=O [X-1021]	> 20 µM	0.437 µM	–	–
CCc1nn(CC(=O)Nc2cccnc2)c(=O)c2ccccc12 [Final Cpd 13]	> 20 µM	> 20 µM	–	–
CC(C)c1nn(CC(=O)N[C@H]2CC[C@@H](O)CC2)c(=O)c2ccc(C(F)(F)F)cc12 [Final Cpd X42]	15 µM	0.353 µM	–	–
Cn1nc(NC(=O)Cn2nc(C3CC3)c3cc(C(F)(F)F)ccc3c2=O)ccc1=O [Final Cpd X93]	> 20 µM	1.01 µM	–	–
Cn1nc(NC(=O)Cn2nc(C3CC3)c3cc(Br)ccc3c2=O)ccc1=O [X-1024]	> 20 µM	0.497 µM	–	–
CC(C)c1nn(CC(=O)N[C@@H]2CC[C@](C)(O)C2)c(=O)c2ccc(C(F)(F)F)cc12 [Final Cpd X100]	> 20 µM	1.26 µM	–	–
CCOC(C)c1ccc2c(=O)n(CC(=O)N[C@H]3C[C@@](C)(O)C3)nc(C(C)C)c2c1 (stereo partly drawn) [X-1042]	> 20 µM	12.2 µM	–	–
CC(C)c1nn(CC(=O)N[C@H]2CN(CC[C@@H](C)O)CC[C@H]2O)c(=O)c2ccc(C(F)(F)F)cc12 [Final Cpd X70]	> 20 µM	0.74 µM	–	–
C[C@]1(O)C[C@@H](NC(=O)Cn2nc(C3CC3)c3cc(C(F)(F)F)ccc3c2=O)C1 [Final Cpd X4]	> 20 µM	0.06 µM	–	–
CC(C)c1nn(CC(=O)Nc2ccc3c(c2)[nH]c(=O)n3C)c(=O)c2ccc(Br)cc12 [X-1031]	4.64 µM	0.03 µM	–	–

Results, then the compound that gave them:

EC50 ([1]; Homo sapiens, PBMC, 6 h)	IC50 ([2]; Homo sapiens, PBMC, 6 h)	EC50 [1]	IC50 [2]	SMILES
> 20 µM	> 20 µM	–	–	CC(C)c1nn(CC(=O)Nc2ccc3nncn3c2)c(=O)c2ccc(C(F)(F)F)c(C#N)c12 [Final Cpd X170]
18.6 µM	0.539 µM	–	–	COC(C)c1ccc2c(=O)n(CC(=O)Nc3ccc4nncn4c3)nc(C(C)C)c2c1 (stereo not drawn) [X-1054]
> 20 µM	1.15 µM	–	–	CC(C)c1nn(CC(=O)N[C@@H]2CCCC[C@H]2O)c(=O)c2ccc(C(F)(F)F)cc12 [Final Cpd X98]
9.7 µM	0.4 µM	–	–	CC(C)c1nn(CC(=O)Nc2ccc3nnn(C)c3c2)c(=O)c2ccc(C(F)(F)F)cc12 [Final Cpd X49]
4.01 µM	0.051 µM	–	–	CC(C)c1nn(CC(=O)Nc2ccc3nncn3n2)c(=O)c2ccc(C(F)(F)F)c(F)c12 [Final Cpd X3]
> 20 µM	0.451 µM	–	–	CC(C)c1nn(CC(=O)Nc2ccn3ccnc3c2)c(=O)c2ccc(C(F)(F)F)cc12 [Final Cpd X54]
16.5 µM	0.144 µM	–	–	CC(C)c1nn(CC(=O)Nc2ccc3nccn3c2)c(=O)c2ccc(C(C)(C)F)cc12 [X-1077]
> 20 µM	0.668 µM	–	–	CC(C)c1nn(CC(=O)Nc2ccc3nc(C(F)(F)F)cn3c2)c(=O)c2ccc(C(F)(F)F)cc12 [Final Cpd X64, 2-(4-isopropyl-1-oxo-6-(trifluoromethyl)phthalazin-2(1H)-yl)-N-(2-(trifluoromethyl)imidazo[1,2-a]pyridin-6-yl)acetamide]
> 20 µM	14.2 µM	–	–	CC(C)c1nn(CC(=O)Nc2ccc(C(F)(F)F)nn2)c(=O)c2ccc(C(F)(F)F)cc12 [Final Cpd X161]
> 20 µM	0.591 µM	–	–	COCCn1nc(NC(=O)Cn2nc(C(C)C)c3cc(C(F)(F)F)ccc3c2=O)ccc1=O [Final Cpd X62]
> 20 µM	> 20 µM	–	–	CCN1CC[C@H](NC(=O)Cn2nc(C(C)C)c3cc(C(F)(F)F)ccc3c2=O)[C@@H](O)C1 (single isomer, unassigned) [Final Cpd X172]
> 20 µM	0.545 µM	–	–	Cc1nc2ccc(NC(=O)Cn3nc(C(C)C)c4cc(C(F)(F)F)ccc4c3=O)cn2n1 [Final Cpd X57]
> 20 µM	2.88 µM	–	–	CC1(c2nn(CC(=O)Nc3ccc4nncn4c3)c(=O)c3ccc(C(F)(F)F)cc23)CC1 [Final Cpd X125]
15.4 µM	0.058 µM	–	–	CC(C)c1nn(CC(=O)N[C@H]2C[C@@](C)(O)C2)c(=O)c2ccc(C(F)(F)F)cc12 [Final Cpd 25]
14.8 µM	0.027 µM	–	–	CC(C)c1nn(CC(=O)Nc2ccc3nncn3c2)c(=O)c2ccc(C3(F)CC3)cc12 [X-1074]
> 20 µM	0.235 µM	–	–	O=C(Cn1nc(C(F)F)c2cc(C(F)(F)F)ccc2c1=O)Nc1ccc2nncn2c1 [Final Cpd X32]
> 20 µM	5.72 µM	–	–	CC(C)c1nn(CC(=O)Nc2ccc3cnn(C(F)F)c3c2)c(=O)c2ccc(C(F)(F)F)cc12 [Final Cpd X146]
> 20 µM	0.156 µM	–	–	CC(C)c1nn(CC(=O)Nc2ccc3nnnn3n2)c(=O)c2ccc(C(F)(F)F)cc12 [Final Cpd X18]
> 20 µM	1.07 µM	–	–	CC(C)c1nn(CC(=O)N[C@H]2C[C@H](O)C2)c(=O)c2ccc(C(F)(F)F)cc12 [Final Cpd X94]
–	–	> 20 µM	0.954 µM	CC(C)c1nn(CC(=O)N[C@H]2CC[C@@H]2O)c(=O)c2ccc(C(F)(F)F)cc12 [Final Cpd X91]
7.93 µM	1.7 µM	–	–	COC(C)c1nn(CC(=O)Nc2ccncn2)c(=O)c2ccc(C(F)(F)F)cc12 (stereo not drawn) [Final Cpd X111]
> 20 µM	0.193 µM	–	–	Cc1cc(NC(=O)Cn2nc(C(C)C)c3cc(C(F)(F)F)ccc3c2=O)cn2cnnc12 [Final Cpd X28, 2-(4-isopropyl-1-oxo-6-(trifluoromethyl)phthalazin-2(1H)-yl)-N-(8-methyl-[1,2,4]triazolo[4,3-a]pyridin-6-yl)acetamide]
> 20 µM	0.6 µM	–	–	CC(C)c1nn(CC(=O)Nc2ccc3nnc(Cl)n3n2)c(=O)c2ccc(C(F)(F)F)cc12 [Final Cpd X63]
7.19 µM	1.13 µM	–	–	CC(C)c1nn(CC(=O)Nc2ccc3nncn3c2)c(=O)c2ccc(OC(F)(F)F)cc12 [X-1040]
> 20 µM	2.65 µM	–	–	CC(C)c1nn(CC(=O)NC2(C)CC(O)C2)c(=O)c2ccc(C(F)(F)F)cc12 (stereo not drawn) [Final Cpd X121]
